Some test systems named below: OVCAR-3; A498; U-251; CAKI-1; RPMI-8226; NCI-H460; SK-OV-3; MDA-N; HCT-15; UACC-62; SN12C; SNB-19; SF-539; LOX IMVI; MDA-MB-435; NCI-H23; SW-620; DMS-273; M19-MEL.
Holding throughout (assay): DTP human tumour cell line panel, 48 h

The structures appear in SMILES notation.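 Cultured in 96-well plates, cells were exposed to test compound for 48 hours across five concentrations. GI50 is the concentration that inhibits growth by half.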 Calls of active or inactive are those of the source. Rule as the data show it: active = GI50 up to about 1.1 µM and inactive = higher.

The GI50 is the concentration at which growth is held to half of that of the control.

Regarding `O=C1SC(c2ccc(Cl)cc2)(c2ccc(Cl)cc2)c2ccccc21`, the GI50 was 79.3 µM (inactive) in the assay on OVCAR-3; > 100 µM (inactive) in the assay with A498; > 100 µM (inactive) with U-251; > 100 µM (inactive) in the assay on CAKI-1; 55.8 µM (inactive) in the assay on RPMI-8226; 63.1 µM (inactive) with NCI-H460. The GI50 in the assay on SK-OV-3 was > 100 µM (inactive); in the assay on MDA-N, 62.4 µM (inactive); in the assay with HCT-15, 34.8 µM; with UACC-62, 98.4 µM (inactive); in the assay on SN12C, > 100 µM (inactive); with SNB-19 it was > 100 µM (inactive). Further, the GI50 was > 100 µM (inactive) in the assay on SF-539; 80.7 µM (inactive) with LOX IMVI; 61.5 µM (inactive) in the assay with MDA-MB-435; 59.4 µM (inactive) in the assay with NCI-H23; > 100 µM (inactive) in the assay on SW-620.

With `CO/N=C\c1ccc2c(c1)Sc1ccccc1O2`, the GI50 in the assay with OVCAR-3 is > 100 µM (inactive); in the assay with A498 it was > 100 µM (inactive); in the assay with U-251 it was 54.5 µM (inactive); in the assay with CAKI-1, > 100 µM (inactive); in the assay with RPMI-8226, 55.7 µM (inactive); in the assay with NCI-H460, 40.2 µM (inactive). Besides, the GI50 in the assay on SK-OV-3 is > 100 µM (inactive); in the assay on MDA-N, 47.2 µM (inactive); with HCT-15 it was 28.5 µM; in the assay with UACC-62, 71.1 µM (inactive); in the assay on SN12C it was > 100 µM (inactive); in the assay on SNB-19 it was > 100 µM (inactive). Besides, the GI50 is 40.7 µM (inactive) with SF-539; 53.5 µM (inactive) in the assay on LOX IMVI; 29.9 µM (inactive) in the assay with MDA-MB-435; 63 µM (inactive) in the assay on NCI-H23; 73.8 µM (inactive) with SW-620.

On to `CNC(=S)N/N=C(\C)c1cc(OC)ccc1O`, for which the GI50 in the assay on OVCAR-3 was > 100 µM (inactive); with A498, > 100 µM (inactive); in the assay with U-251, > 100 µM (inactive); in the assay on CAKI-1, > 100 µM (inactive); with RPMI-8226, > 31.3 µM (inactive); with NCI-H460, > 100 µM (inactive). In addition, the GI50 was > 100 µM (inactive) in the assay with SK-OV-3; > 100 µM (inactive) in the assay on MDA-N; 63.1 µM in the assay on HCT-15; > 100 µM (inactive) with UACC-62; > 100 µM (inactive) in the assay on SN12C; > 100 µM (inactive) with SNB-19. Further, the GI50 was > 100 µM (inactive) in the assay on SF-539; > 100 µM (inactive) in the assay with LOX IMVI; > 78.9 µM (inactive) with MDA-MB-435; > 100 µM (inactive) in the assay on NCI-H23; > 100 µM (inactive) with SW-620.

Regarding `COc1ccc(C(=O)c2[nH]c(Nc3cc(C)ccn3)c(C(=S)Nc3ccccc3)c2N)cc1`, the GI50 in the assay with OVCAR-3 was 41.6 µM (inactive); with A498 it was 15.9 µM (inactive); in the assay with U-251 it was 15.3 µM (inactive); with CAKI-1, 36.6 µM (inactive); with RPMI-8226, 13.3 µM (inactive); in the assay on NCI-H460, 6.04 µM (inactive). Also, the GI50 in the assay on SK-OV-3 is 19.5 µM (inactive); with MDA-N it was 15.3 µM (inactive); in the assay on HCT-15, 21.1 µM; in the assay on UACC-62, 12.9 µM (inactive); in the assay on SN12C it was 18.2 µM (inactive); in the assay with SNB-19 it was 18.8 µM (inactive). The GI50 was 18.3 µM (inactive) with SF-539; 18.7 µM (inactive) with LOX IMVI; 19.4 µM (inactive) in the assay on MDA-MB-435; 21.9 µM (inactive) in the assay with NCI-H23; 25.3 µM (inactive) in the assay with SW-620.

Take `COc1ccccc1-n1c(=O)n(C)c(=O)n1C(C)(C)C`: the GI50 with OVCAR-3, with A498, with U-251, with CAKI-1, in the assay on RPMI-8226 and in the assay with NCI-H460 was > 100 µM (inactive) in each case. Also, the GI50 is > 100 µM (inactive) with SK-OV-3; > 100 µM (inactive) in the assay on MDA-N; above 100 µM with HCT-15; > 100 µM (inactive) in the assay on UACC-62; > 100 µM (inactive) with SN12C; > 100 µM (inactive) in the assay with SNB-19. Also, the GI50 in the assay on SF-539, with LOX IMVI, in the assay on MDA-MB-435, in the assay with NCI-H23 and with SW-620 was > 100 µM (inactive) in each case.

As for `CC(=O)O[C@H]1C(=O)[C@@]2(C)[C@H]([C@H](OC(=O)c3ccco3)[C@]3(O)C[C@H](OC(=O)[C@H](O)[C@@H](NC(=O)c4ccccc4)c4ccccc4)C(C)=C1C3(C)C)[C@]1(OC(C)=O)CO[C@@H]1C[C@@H]2O`, the GI50 in the assay on OVCAR-3 is 0.0612 µM (active); in the assay with A498 it was 3.81 µM (inactive); with U-251 it was 0.125 µM (active); in the assay on CAKI-1, 14.3 µM (inactive); with RPMI-8226 it was 0.0189 µM (active); in the assay with NCI-H460, 0.164 µM (active). For the same molecule, the GI50 in the assay with SK-OV-3 was 0.287 µM (active); in the assay on MDA-N it was 0.0127 µM (active); with HCT-15, 15.1 µM; in the assay with UACC-62 it was 0.277 µM (active); in the assay with SN12C, 0.308 µM (active); in the assay with SNB-19, 0.344 µM (active). The GI50 was 0.0356 µM (active) in the assay with SF-539; 0.129 µM (active) with LOX IMVI; 0.0165 µM (active) with MDA-MB-435; 0.412 µM (active) in the assay with NCI-H23; 0.146 µM (active) with SW-620.

Turning to `O=c1[nH]nc(Cc2ccccc2)n1C1CCCC1`, the GI50 in the assay on OVCAR-3, with A498, in the assay with U-251, in the assay on CAKI-1, in the assay with RPMI-8226 and in the assay on NCI-H460 was > 100 µM (inactive) each time. Also, the GI50 in the assay on SK-OV-3 is > 100 µM (inactive); in the assay with MDA-N, > 100 µM (inactive); in the assay on HCT-15, above 100 µM; with UACC-62, > 100 µM (inactive); in the assay with SN12C, > 100 µM (inactive); in the assay on SNB-19 it was > 100 µM (inactive). Besides, the GI50 with SF-539, in the assay with LOX IMVI, in the assay on MDA-MB-435, with NCI-H23 and in the assay on SW-620 was > 100 µM (inactive) each time.

With `Cc1cc(SCC(=O)c2ccc(Br)cc2)cc(C)[o+]1`, the GI50 is 21.4 µM (inactive) in the assay on OVCAR-3; 27.3 µM (inactive) with A498; 30.1 µM (inactive) in the assay on U-251; 35.9 µM (inactive) with CAKI-1; 21.7 µM (inactive) with RPMI-8226; 25.5 µM (inactive) in the assay on NCI-H460. Also, the GI50 in the assay with SK-OV-3 is 60 µM (inactive); with MDA-N it was 30.6 µM (inactive); in the assay with HCT-15 it was 32.1 µM; with UACC-62, 31.4 µM (inactive); in the assay on SN12C, 39 µM (inactive); in the assay on SNB-19, 36.7 µM (inactive). The GI50 with SF-539 is 23 µM (inactive); in the assay on LOX IMVI it was 32.1 µM (inactive); in the assay on MDA-MB-435, 21.3 µM (inactive); with NCI-H23 it was 31.6 µM (inactive); in the assay on SW-620, 34 µM (inactive).

Regarding `CCCCc1ccc(Nc2nc(Cl)c3ccn(C4CC(Oc5ccc(C)cc5)C(COc5ccc(C)cc5)O4)c3n2)cc1` (configuration not stated), the GI50 in the assay on OVCAR-3 is > 100 µM (inactive); in the assay on A498, > 46.5 µM (inactive); with U-251, > 46.5 µM (inactive); in the assay on CAKI-1, > 46.5 µM (inactive); in the assay with RPMI-8226, > 46.5 µM (inactive); with NCI-H460, > 31.6 µM (inactive). The GI50 was > 46.5 µM (inactive) in the assay with SK-OV-3; > 46.5 µM (inactive) in the assay on MDA-N; above 46.5 µM in the assay with HCT-15; 24.5 µM (inactive) in the assay on UACC-62; > 46.5 µM (inactive) in the assay on SN12C; 25.9 µM (inactive) in the assay with SNB-19. For the same molecule, the GI50 with SF-539 is > 46.5 µM (inactive); in the assay on LOX IMVI, > 46.5 µM (inactive); in the assay on MDA-MB-435, > 46.5 µM (inactive); with NCI-H23 it was 24.8 µM (inactive); in the assay on SW-620, > 46.5 µM (inactive).

Turning to `N=C(N)N/N=C\c1ccc(C2CCNCC2)cc1`, the GI50 in the assay on OVCAR-3, with A498, in the assay with U-251, with CAKI-1, in the assay on RPMI-8226 and in the assay on NCI-H460 was > 100 µM (inactive) each time. Further, the GI50 was > 100 µM (inactive) in the assay on SK-OV-3; > 100 µM (inactive) in the assay on MDA-N; above 100 µM with HCT-15; > 100 µM (inactive) in the assay with UACC-62; > 100 µM (inactive) in the assay on SN12C; > 100 µM (inactive) with SNB-19. The GI50 in the assay on SF-539, in the assay on LOX IMVI, in the assay on MDA-MB-435, in the assay with NCI-H23 and with SW-620 was > 100 µM (inactive) throughout.

`O=C(c1cccc(F)c1F)N1CCc2c([nH]c3ccccc23)C1c1ccc2c(c1)OCO2` (configuration not stated): the GI50 in the assay on OVCAR-3 is 1.64 µM (inactive); in the assay with A498 it was 7.55 µM (inactive); in the assay on U-251, 11.1 µM (inactive); in the assay on CAKI-1, 15.5 µM (inactive); with RPMI-8226, 8.2 µM (inactive); in the assay on NCI-H460, 6.56 µM (inactive). Moreover, the GI50 in the assay on SK-OV-3 is 3.61 µM (inactive); with MDA-N, 2.42 µM (inactive); with HCT-15, 3.73 µM; in the assay with UACC-62, 5.24 µM (inactive); in the assay with SN12C it was 14.3 µM (inactive); in the assay on SNB-19, 7.76 µM (inactive). Besides, the GI50 is 4.79 µM (inactive) in the assay with SF-539; 20.2 µM (inactive) with LOX IMVI; 2.23 µM (inactive) in the assay with MDA-MB-435; 11.7 µM (inactive) with NCI-H23; 9.71 µM (inactive) in the assay with SW-620.

In the case of `Cn1nc(-c2ccccc2)c(C(=O)/C=C/c2ccc(F)cc2)c(N2CCCCC2)c1=O`, the GI50 with U-251 was 5.74 µM (inactive); in the assay on CAKI-1 it was 8.75 µM (inactive); in the assay with RPMI-8226, 2.48 µM (inactive); with DMS-273 it was 4.03 µM (inactive); in the assay on NCI-H460, 4.83 µM (inactive); in the assay on SK-OV-3 it was 15 µM (inactive). The GI50 was 8.36 µM (inactive) in the assay with M19-MEL; 5.06 µM in the assay on HCT-15; 6.27 µM (inactive) with UACC-62; 8.39 µM (inactive) with SN12C; 13.2 µM (inactive) in the assay with SNB-19; 4.54 µM (inactive) in the assay on SF-539. The GI50 was 3.5 µM (inactive) with LOX IMVI, 4.19 µM (inactive) in the assay with NCI-H23 and 5.06 µM (inactive) in the assay with SW-620.

The values above are taken from ChEMBL document CHEMBL1201862, “PubChem BioAssay data set” (2004).
